# Literature values in US20050287096A1, “Method for improving the appearance of skin” (priority 2004, published 2005).
# Tested on: knee abrasions
# Conditions: ointment containing 5% sucralfate, topical
substance,measurement,setting,value
sucralfate,stopping of fusion from the abrasions,knee abrasions caused by falls during a basketball game,fusion to be stopped after twenty four hours
same,healing of the abrasions,period after fusion stopped,good healing occurring over a three day period
